Our source for the inhibition values is paper PMC6934184, “Selective DNA-PKcs inhibition extends the therapeutic index of localized radiotherapy and chemotherapy” (The Journal of Clinical Investigation, 2019).

For the test, the target named is T1, PRKCE (PKC epsilon) (Homo sapiens, UniProt Q02156).
T1 construct: purchased Thermo Fisher Scientific (Life Technologies) SelectScreen
The experiment in a line: SelectScreen Z'LYTE. In kind it is biochemical. The gist of the method:
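NU5455 was profiled across the SelectScreen Broad panel of kinase activity and binding assays. Z'LYTE reactions such as CSF1R ran at apparent Km ATP, while the Adapta CAMK1 assay used ATP listed as 10. Values are given as percent.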

T1 sequence (Q02156 whole entry): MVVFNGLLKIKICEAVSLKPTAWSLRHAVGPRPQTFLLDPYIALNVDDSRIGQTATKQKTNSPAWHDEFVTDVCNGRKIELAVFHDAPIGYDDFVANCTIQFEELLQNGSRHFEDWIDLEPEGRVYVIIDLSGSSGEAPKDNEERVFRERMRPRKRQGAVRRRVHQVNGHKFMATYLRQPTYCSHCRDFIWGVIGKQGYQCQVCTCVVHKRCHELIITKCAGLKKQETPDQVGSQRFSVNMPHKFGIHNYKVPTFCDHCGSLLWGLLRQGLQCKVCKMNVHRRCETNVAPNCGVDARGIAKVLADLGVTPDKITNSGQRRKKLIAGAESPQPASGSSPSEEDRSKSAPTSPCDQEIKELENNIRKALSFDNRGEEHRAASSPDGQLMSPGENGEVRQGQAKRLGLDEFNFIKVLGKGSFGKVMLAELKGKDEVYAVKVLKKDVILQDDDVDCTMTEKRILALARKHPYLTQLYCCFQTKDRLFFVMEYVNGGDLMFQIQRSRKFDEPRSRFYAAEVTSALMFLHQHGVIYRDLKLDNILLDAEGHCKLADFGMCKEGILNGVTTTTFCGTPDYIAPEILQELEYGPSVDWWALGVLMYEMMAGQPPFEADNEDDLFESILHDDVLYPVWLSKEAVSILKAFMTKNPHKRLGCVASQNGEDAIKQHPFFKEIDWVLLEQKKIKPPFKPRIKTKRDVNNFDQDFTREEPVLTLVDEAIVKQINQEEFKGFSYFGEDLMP

In the case of `CN(C(=O)CN1CCOCC1)c1ccc2sc3c(-c4cccc5c(=O)cc(N6CC7CCC(C6)O7)oc45)cccc3c2c1` [NU5455], the inhibition at 1 µM is -4.9%.

By inhibition is commonly meant the drop in the measured response relative to a control, in per cent.
